Earlier results in patent US6436936B1, “Methods and compositions for treating disorders, using optically pure (+) zopiclone” (Sepracor Inc., priority 1991, dated 2002).

tested on: mice; details: reference agents, 3 per group, ten parameters scored, total score <40 of 60 denotes behavioral depression

Row | Compound | ED100
1 | CN1C(=O)CN=C(c2ccccc2)c2cc(Cl)ccc21 [diazepam] | 50 mg/kg
2 | CCC1(c2ccccc2)CCC(=O)NC1=O (stereo not drawn) [glutethimide] | 300 mg/kg
3 | O=C(CCCN1CCC(O)(c2ccc(Cl)cc2)CC1)c1ccc(F)cc1 [haloperidol] | 10 mg/kg
4 | CCCC(C)(COC(N)=O)COC(N)=O [meprobamate] | 300 mg/kg
5 | CCCC(C)C1(CC)C(=O)NC(=O)NC1=O (stereo not drawn) [pentobarbital] | 100 mg/kg
6 | COC(=O)[C@H]1[C@H]2C[C@@H]3c4[nH]c5cc(OC)ccc5c4CCN3C[C@H]2C[C@@H](OC(=O)c2cc(OC)c(OC)c(OC)c2)[C@@H]1OC [reserpine] | 50 mg/kg
